The test deals with T1, human μ-opiate receptor (Homo sapiens, UniProt P35372).
T1 construct: purchased Nen company, Zaventem, Belgium RB-HOM; host or cells: CHO-K1 cells (membrane preparation)
As to the kind of experiment: Affinity for the human μ-opiate receptor ([3H]-naloxone displacement, SPA, CHO-K1 membrane preparation). As to conditions: test substance 1 μmole/l; displacement of 1 nmole/l [3H]-naloxone; percentage inhibition of the specific binding; read-out: μ-opioid receptor, % inhibition [1 μM]. The protocol: Method for Determining the Affinity for the Human μ-Opiate Receptor
The receptor affinity for the human μ-opiate receptor is determined in a homogeneous batch in microtiter plates. For this purpose dilution series of the substances to be tested are incubated for 90 minutes at room temperature with a receptor membrane preparation (15-40 μg protein/250 μl incubation batch) of CHO-K1 cells, which express the human μ-opiate receptor (RB-HOM receptor membrane preparation from the Nen company, Zaventem, Belgium), in the presence of 1 nmole/l of the radioactive ligand [^3H]-naloxone (NET719, Nen company, Zaventem, Belgium) and 1 mg WGA-SPA beads (wheat germ agglutinin SPA beads from Amersham/Pharmacia, Freiburg, Germany) in a total volume of 250 μl. 50 mmole/l of Tris-HCl supplemented with 0.05% sodium azide and with 0.06% bovine serum albumin is used as incubation buffer. In order to determine the non-specific binding, 25 μmole/l of naloxone is additionally added. After the end of the 90 minutes' incubation time the microtiter plates are centrifuged for 20 minutes at 1000 g and the radioactivity is measured in a beta counter (Microbeta-Trilux, PerkinElmer Wallac, Freiburg, Germany). The percentage displacement of the radioactive ligand from its binding to the human μ-opiate receptor at a concentration of the test substances of 1 μmole/l is determined and is given as percentage inhibition of the specific binding.

T1 sequence (P35372 whole entry): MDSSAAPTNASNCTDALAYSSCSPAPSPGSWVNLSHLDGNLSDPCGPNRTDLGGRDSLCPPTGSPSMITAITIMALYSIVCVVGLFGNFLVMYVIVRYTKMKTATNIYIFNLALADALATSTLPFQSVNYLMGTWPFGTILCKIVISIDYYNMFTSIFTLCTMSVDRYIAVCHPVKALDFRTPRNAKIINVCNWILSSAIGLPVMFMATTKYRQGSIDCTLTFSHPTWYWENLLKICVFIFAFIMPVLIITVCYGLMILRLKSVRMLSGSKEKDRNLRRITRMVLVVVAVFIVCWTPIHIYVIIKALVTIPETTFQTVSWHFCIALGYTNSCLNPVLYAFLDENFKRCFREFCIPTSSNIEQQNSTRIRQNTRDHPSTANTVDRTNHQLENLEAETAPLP

`CC1CC(C)CN(c2oc(C(C3CCC(C(c4cccs4)N(C)C)CC3)N3CCN(Cc4ccccc4)CC3)nc2Cc2ccccc2)C1` (stereo not drawn) [compound 53, ({4-[[4-benzyl-5-(3,5-dimethylpiperidin-1-yl)-oxazol-2-yl]-(4-benzyl-piperazin-1-yl)-methyl]-cyclohexyl}-thiophen-2-yl-methyl)-dimethylamine]: the inhibition (commonly the share of the control response that was lost under treatment) at 1 µM was 86%.
With `CN(CCc1ccccc1)c1oc(C(C2CCC(C(c3cccs3)N(C)C)CC2)N2CCN(Cc3ccccc3)CC2)nc1Cc1ccccc1` (stereo not drawn) [compound 54, (4-benzyl-2-{(4-benzyl-piperazin-1-yl)-[4-(dimethylaminothiophen-2-yl-methyl)-cyclohexyl]-methyl}-oxazol-5-yl)-methyl-phenethylamine] the figure was 74%; with `CN(C)C(c1cccs1)C1CCC(C(c2nc(Cc3ccccc3)c(N3CCSCC3)o2)N2CCN(Cc3ccccc3)CC2)CC1` (stereo not drawn) [compound 55, ({4-[(4-benzylpiperazin-1-yl)-(4-benzyl-5-thiomorpholin-4-yl-oxazol-2-yl)-methyl]-cyclohexyl}-thiophen-2-yl-methyl)-dimethylamine], 63%.
With `CN(C)C(c1ccc(Cl)cc1)C1CCC(CC(c2nc(Cc3ccccc3)c(N3CCN(Cc4ccccc4)CC3)o2)N2CCCCC2)CC1` (stereo not drawn) [compound 56, [(4-{2-[4-benzyl-5-(4-benzyl-piperazin-1-yl)-oxazol-2-yl]-2-piperidin-1-yl-ethyl}-cyclohexyl)-(4-chlorophenyl)-methyl]-dimethylamine] the figure was 62%; with `CC1CCN(c2oc(C(CC3CCC(C(c4ccc(Cl)cc4)N(C)C)CC3)N3CCCCC3)nc2Cc2ccccc2)CC1` (stereo not drawn) [compound 57, [(4-{2-[4-benzyl-5-(4-methylpiperidin-1-yl)-oxazol-2-yl]-2-piperidin-1-yl-ethyl}-cyclohexyl)-(4-chlorophenyl)-methyl]-dimethylamine], 64%.
Turning to `CN(Cc1ccccc1)c1oc(C(CC2CCC(C(c3ccc(Cl)cc3)N(C)C)CC2)N2CCCCC2)nc1Cc1ccccc1` (stereo not drawn) [compound 58, Benzyl-[4-benzyl-2-(2-{4-[(4-chlorophenyl)-dimethylaminomethyl]-cyclohexyl}-1-piperidin-1-yl-ethyl)-oxazol-5-yl]-methylamine], the inhibition at 1 µM was 73%.
With `CCN(CC)C(CC1CCC(C(c2ccc(Cl)cc2)N(C)C)CC1)c1nc(Cc2ccccc2)c(N2CCC(Cc3ccccc3)CC2)o1` (stereo not drawn) [compound 59, (1-[4-benzyl-5-(4-benzylpiperidin-1-yl)-oxazol-2-yl]-2-{4-[(4-chlorophenyl)-dimethylaminomethyl]-cyclohexyl}-ethyl)-diethylamine] the figure was 60%; with `CCN(CC)C(CC1CCC(C(c2ccc(Cl)cc2)N(C)C)CC1)c1nc(Cc2ccccc2)c(N2CCC(C)CC2)o1` (stereo not drawn) [compound 60, (1-[4-benzyl-5-(4-methylpiperidin-1-yl)-oxazol-2-yl]-2-{4-[(4-chlorophenyl)-dimethylaminomethyl]-cyclohexyl}-ethyl)-diethylamine], 68%.
Under `CCN(CC)C(CC1CCC(C(c2ccc(Cl)cc2)N(C)C)CC1)c1nc(Cc2ccccc2)c(N(C)Cc2ccccc2)o1` (stereo not drawn) [compound 61, Benzyl-[4-benzyl-2-(2-{4-[(4-chlorophenyl)-dimethylaminomethyl]-cyclohexyl}-1-diethylamino-ethyl)-oxazol-5-yl]-methylamine] stands 76%.
Under `CN(C)C(c1ccc(Cl)cc1)C1CCC(CC(c2nc(Cc3ccccc3)c(N3CCC(Cc4ccccc4)CC3)o2)N2CCN(Cc3ccccc3)CC2)CC1` (stereo not drawn) [compound 62, [{4-[2-[4-benzyl-5-(4-benzyl-piperidin-1-yl)-oxazol-2-yl]-2-(4-benzyl-piperazin-1-yl)-ethyl]-cyclohexyl}-(4-chlorophenyl)-methyl]-dimethylamine] stands 87%.
For the compound `CN(C)C(c1ccc(Cl)cc1)C1CCC(CC(c2nc(Cc3ccccc3)c(N3CCN(Cc4ccccc4)CC3)o2)N2CCN(Cc3ccccc3)CC2)CC1` (stereo not drawn) [compound 63, [{4-[2-[4-benzyl-5-(4-benzylpiperazin-1-yl)-oxazol-2-yl]-2-(4-benzyl-piperazin-1-yl)-ethyl]-cyclohexyl}-(4-chlorophenyl)-methyl]-dimethylamine], the inhibition at 1 µM was 78%.
Consider `CC1CCN(c2oc(C(CC3CCC(C(c4ccc(Cl)cc4)N(C)C)CC3)N3CCN(Cc4ccccc4)CC3)nc2Cc2ccccc2)CC1` (stereo not drawn) [compound 64, [{4-[2-[4-benzyl-5-(4-methylpiperidin-1-yl)-oxazol-2-yl]-2-(4-benzyl-piperazin-1-yl)-ethyl]-cyclohexyl}-(4-chlorophenyl)-methyl]-dimethylamine], for which the inhibition at 1 µM was 69%.
With `CC1CCN(c2oc(C(CC3CCC(C(c4ccc(F)cc4)N(C)C)CC3)N3CCCCC3)nc2Cc2ccccc2)CC1` (stereo not drawn) [compound 65, [(4-{2-[4-benzyl-5-(4-methylpiperidin-1-yl)-oxazol-2-yl]-2-piperidin-1-yl-ethyl}-cyclohexyl)-(4-fluorophenyl)-methyl]-dimethylamine] the figure was 61%; with `CN(Cc1ccccc1)c1oc(C(CC2CCC(C(c3ccc(F)cc3)N(C)C)CC2)N2CCCCC2)nc1Cc1ccccc1` (stereo not drawn) [compound 66, Benzyl-[4-benzyl-2-(2-{4-[dimethylamino-(4-fluorophenyl)-methyl]-cyclohexyl}-1-piperidin-1-yl-ethyl)-oxazol-5-yl]-methylamine], 65%.
Under `CCN(CC)C(CC1CCC(C(c2ccc(F)cc2)N(C)C)CC1)c1nc(Cc2ccccc2)c(N2CCC(Cc3ccccc3)CC2)o1` (stereo not drawn) [compound 67, (1-[4-benzyl-5-(4-benzyl-piperidin-1-yl)-oxazol-2-yl]-2-{4-[dimethylamino-(4-fluorophenyl)-methyl]-cyclohexyl}-ethyl)-diethylamine] stands 64%.
Under `CCN(CC)C(CC1CCC(C(c2ccc(F)cc2)N(C)C)CC1)c1nc(Cc2ccccc2)c(N2CCN(Cc3ccccc3)CC2)o1` (stereo not drawn) [compound 68, (1-[4-benzyl-5-(4-benzyl-piperazin-1-yl)-oxazol-2-yl]-2-{4-[dimethylamino-(4-fluorophenyl)-methyl]-cyclohexyl}-ethyl)-diethylamine] stands 60%; under `CCN(CC)C(CC1CCC(C(c2ccc(F)cc2)N(C)C)CC1)c1nc(Cc2ccccc2)c(N2CCC(C)CC2)o1` (stereo not drawn) [compound 69, (1-[4-benzyl-5-(4-methylpiperidin-1-yl)-oxazol-2-yl]-2-{4-[dimethylamino-(4-fluorophenyl)-methyl]-cyclohexyl}-ethyl)-diethylamine], 82%.
Turning to `CCN(CC)C(CC1CCC(C(c2ccc(F)cc2)N(C)C)CC1)c1nc(Cc2ccccc2)c(N(C)Cc2ccccc2)o1` (stereo not drawn) [compound 70, Benzyl-[4-benzyl-2-(1-diethylamino-2-{4-[dimethylamino-(4-fluorophenyl)-methyl]-cyclohexyl}-ethyl)-oxazol-5-yl]-methylamine], the inhibition at 1 µM stood at 60%.
Regarding `CC1CCN(c2oc(C(CC3CCC(C(c4ccc(F)cc4)N(C)C)CC3)N3CCN(Cc4ccccc4)CC3)nc2Cc2ccccc2)CC1` (stereo not drawn) [compound 71, [{4-[2-[4-benzyl-5-(4-methylpiperidin-1-yl)-oxazol-2-yl]-2-(4-benzyl-piperazin-1-yl)-ethyl]-cyclohexyl}-(4-fluorophenyl)-methyl]-dimethylamine], the inhibition at 1 µM was determined as 67%.
Regarding `CN(C)C(c1cccs1)C1CCC(CC(c2nc(Cc3ccccc3)c(N3CCC(Cc4ccccc4)CC3)o2)N2CCCCC2)CC1` (stereo not drawn) [compound 72, [(4-{2-[4-benzyl-5-(4-benzyl-piperidin-1-yl)-oxazol-2-yl]-2-piperidin-1-yl-ethyl}-cyclohexyl)-thiophen-2-yl-methyl]-dimethylamine], the inhibition at 1 µM was 69%.
As to `CN(C)C(c1cccs1)C1CCC(CC(c2nc(Cc3ccccc3)c(N3CCN(Cc4ccccc4)CC3)o2)N2CCCCC2)CC1` (stereo not drawn) [compound 73, [(4-{2-[4-benzyl-5-(4-benzyl-piperazin-1-yl)-oxazol-2-yl]-2-piperidin-1-yl-ethyl}-cyclohexyl)-thiophen-2-yl-methyl]-dimethylamine], the inhibition at 1 µM was 94%.
With `CC1CCN(c2oc(C(CC3CCC(C(c4cccs4)N(C)C)CC3)N3CCCCC3)nc2Cc2ccccc2)CC1` (stereo not drawn) [compound 74, [(4-{2-[4-benzyl-5-(4-methylpiperidin-1-yl)-oxazol-2-yl]-2-piperidin-1-yl-ethyl}-cyclohexyl)-thiophen-2-yl-methyl]-dimethylamine] the figure was 79%; with `CN(Cc1ccccc1)c1oc(C(CC2CCC(C(c3cccs3)N(C)C)CC2)N2CCCCC2)nc1Cc1ccccc1` (stereo not drawn) [compound 75, Benzyl-(4-benzyl-2-{2-[4-(dimethylaminothiophen-2-yl-methyl)-cyclohexyl]-1-piperidin-1-yl-ethyl}-oxazol-5-yl)-methylamine], 90%.
Under `CN(C)C(c1cccs1)C1CCC(CC(c2nc(Cc3ccccc3)c(N3CCN(c4ccccc4)CC3)o2)N2CCCCC2)CC1` (stereo not drawn) [compound 76, [(4-{2-[4-benzyl-5-(4-phenyl-piperazin-1-yl)-oxazol-2-yl]-2-piperidin-1-yl-ethyl}-cyclohexyl)-thiophen-2-yl-methyl]-dimethylamine] stands 94%.

These data come from patent US7608619B2, “Substituted oxazole compounds with analgesic activity” (Gruenenthal GmbH, priority 2005, dated 2009).
